Measurements taken from US9863966B2 (priority 2012, dated 2018).

Columns and labels:
[1] = system: monoclonal antibody from hybridoma cell line NM4.3F5.C10.B7.B2.B2.C4; assay type: binding, sheep
[2] = cited from earlier work
[3] = cited from earlier work; for plasma elimination half-life: Demerol Prescribing Information datasheet; for half-life: Latta et al., 2002
[4] = cited from earlier work; remark: listed apart in the source

Compound	% Cross Reactivity [1]	also measured
CCO[C@@H]1O[C@H](C(=O)O)[C@@H](O)[C@H](O)[C@H]1O [Ethyl-Glucuronide]	<1%	
CN1CC[C@]23CCCC[C@H]2[C@H]1Cc1ccc(O)cc13 [Levorphanol]	<1%	
Cc1ccc(-c2nc3ccc(C)cn3c2CC(=O)N(C)C)cc1 [Zolpidem]	<1%	
COc1ccc2c3c1O[C@H]1C(=O)CC[C@@]4(O)[C@@H](C2)N(C)CC[C@]314 [Oxycodone]	<1%	
NC1(c2ccccc2Cl)CCCCC1=O (stereo not shown) [Norketamine]	<1%	
CCCC(C)(COC(N)=O)COC(N)=O [Meprobamate]	<1%	
O=C(O)[C@H]1O[C@@H](OCC(Cl)(Cl)Cl)[C@H](O)[C@@H](O)[C@@H]1O [Urochloralic Acid]	<1%	
O=C(O)C(O)C(O)C(=O)O.Oc1ccc2c(c1)[C@@]13CCCC[C@@]1(O)[C@@H](C2)N(CC1CCC1)CC3 [Butorphanol Tartrate]	<1%	
COc1ccc2c3c1O[C@H]1C(=O)CC[C@H]4[C@@H](C2)N(C)CC[C@]314 [Hydrocodone]	<1%	
CCOC(=O)C1(c2ccccc2)CCNCC1 [Normeperidine]	100%	IC50 (antibody sensitivity) [1]: about 0.5 ng/ml; analgesic effectiveness relative to parent compound ([2]; relative to meperidine): half as effective; plasma elimination half-life [3]: 15 to 20 h; half-life [3]: 14 to 48 h; convulsant activity relative to parent compound ([4]; relative to meperidine): more active as a convulsant; neurotoxic potential relative to parent compound ([4]; relative to meperidine): up to 3 times
CC(C)=CCN1CCC2(C)c3cc(O)ccc3CC1C2C (stereo not shown) [Pentazocine]	<1%	
COc1ccc2c3c1O[C@H]1[C@@H](O)C=C[C@H]4[C@@H](C2)N(C)CC[C@@]341 [Codeine]	<1%	
CCC(=O)C(CC(C)N(C)C)(c1ccccc1)c1ccccc1 (stereo not shown) [Methadone]	<1%	
CCN(C(C)=O)c1cccc(-c2ccnc3c(C#N)cnn23)c1 [Zaleplon]	<1%	
CN1CCN(C(=O)OC2c3nccnc3C(=O)N2c2ccc(Cl)cn2)CC1 (stereo not shown) [Zopiclone]	<1%	
Oc1ccc2c3c1O[C@H]1[C@@H](O)CC[C@@]4(O)[C@@H](C2)N(CC2CCC2)CC[C@]314 [Nalbuphine]	<1%	
CN1CC[C@]23c4c5ccc(O)c4O[C@H]2C(=O)CC[C@@]3(O)[C@H]1C5 [Oxymorphone]	<1%	
CCOC(=O)C1(c2ccccc2)CCN(C)CC1 [Meperidine]	102.5%	potency compared to morphine (times less potent) ([2]; Latta et al., 2002): 7-10 times; eliminated in the form of normeperidine ([3]; Baselt, 2008): around 17%; excreted unchanged in urine ([3]; Baselt, 2008): About 7%; plasma elimination half-life [3]: 3 to 4 h; half-life [3]: 3 to 6 h; fraction reaching systematic circulation (first-pass metabolism) ([3]; in vivo): around 50%; time of peak plasma concentrations after administration ([3]; intramuscular injection): 1 to 2 h; administered dose excreted in urine ([3]; within 24 hours, Moffat et al., 2003): Approximately 70%; daily dose reported to cause grand mal seizures ([4]; as low as, Latta et al., 2002): ≥ 260 mg; dose reported as causing muscle twitches or tremors ([4]; as low as, Latta et al., 2002): ≥ 46 mg per day
